Measured values as given in US10633389B2, “CARM1 inhibitors and uses thereof” (Epizyme, Inc., priority 2013, dated 2020).

These molecules were tested on asymmetric di-methyl PABP1 in RKO cells (assay: RKO methylation assay, In Cell Western (ICW) for asymmetric di-methyl PABP1). Conditions: Homo sapiens, RKO, Cellular potencies, ICW PABP1me2a.
Format: cell-based
Text: RKO adherent cells were purchased from ATCC (American Type Culture Collection), Manassas, Va., USA. DMEM/Glutamax medium, penicillin-streptomycin, heat inactivated fetal bovine serum, 0.05% trypsin and D-PBS were purchased from Life Technologies, Grand Island, N.Y., USA. Odyssey blocking buffer, 800 CW goat anti-rabbit IgG (H+L) antibody, and Licor Odyssey infrared scanner were purchased from Licor Biosciences, Lincoln, Nebr., USA. Asymmetric di-methyl PABP1 antibody was purchased from Cell Signaling Technology, Danvers, Mass., USA. Methanol was purchased from VWR, Franklin, Mass., USA. 10% Tween 20 was purchased from KPL, Inc., Gaithersburg, Md., USA. Paraformaldehyde (PFA) was purchased from EM Sciences. DRAQ5 was purchased from Biostatus Limited, Leicestershire, UK.
RKO adherent cells were maintained in growth medium (DMEM/Glutamax medium supplemented with 10% v/v heat inactivated fetal bovine serum and 100 units/mL penicillin-streptomycin) and cultured at 37° C. under 5% CO2.
Cell treatment, In Cell Western (ICW) for detection of asymmetric di-methyl PABP1 and DNA content: RKO cells were seeded in assay medium at a concentration of 30,000 cells per mL to a poly-D-lysine coated 384 well culture plate (BD Biosciences 356697) with 50 VL per well. Compound (100 nL) from a 96-well source plate was added directly to 384 well cell plate. Plates were incubated at 37° C., 5% CO2 for 48 hours. After two days of incubation, plates were brought to room temperature outside of the incubator for ten minutes and blotted on paper towels to remove cell media. Cells were fixed for 20 minutes at room temperature by adding 50 ul of 8% PFA followed by aspiration of supernatant with the Biotek EL406 plate washer. Cells were then permeabilized by addition of 50 μL of ice cold 100% methanol directly to each well and incubated for 30 min at room temperature. After 30 min, plates were transferred to a Biotek EL406 plate washer and washed 2 times with 100 μL per well of wash buffer (1×PBS). Next 60 μL per well of Odyssey blocking buffer (Odyssey Buffer with 0.1% Tween 20 (v/v)) were added to each plate and incubated 1 hour at room temperature. Blocking buffer was removed and 20 μL per well of primary antibody was added (asymmetric-methyl PABP1) diluted 1:400 in Odyssey buffer with 0.1% Tween 20 (v/v)) and plates were incubated overnight (16 hours) at 4° C. Plates were washed 5 times with 100 μL per well of wash buffer. Next 20 μL per well of secondary antibody was added (1:800 800 CW goat anti-rabbit IgG (H+L) antibody, 1:2000 DRAQ5 in Odyssey buffer with 0.1% Tween 20 (v/v)) and incubated for 1 hour at room temperature. The plates were washed 5 times with 100 μL per well wash buffer then 2 times with 100 μL per well of water. Plates were allowed to dry at room temperature then imaged on the Licor Odyssey machine which measures integrated intensity at 700 nm and 800 nm wavelengths. Both 700 and 800 channels were scanned.
First, the ratio for each well was determined by:
Each plate included fourteen control wells of DMSO only treatment (minimum inhibition) as well as fourteen control wells for maximum inhibition treated with 20 μM of a reference compound. The average of the ratio values for each control type was calculated and used to determine the percent […] for each test well in the plate. Reference compound was serially diluted three-fold in DMSO for a total of nine test concentrations, beginning at 20 μM.
Percent inhibition was determined and IC50 curves were generated using triplicate wells per concentration of compound. […]

Row | SMILES | IC50
1 | CCOC(=O)N1CCCC(Nc2nc(-c3cccc(OCC(O)CNC)c3)nc(-c3c(C)noc3C)c2C)C1 (stereo not shown) [Example 190-1a] | < 5 µM
2 | CNC[C@@H](O)COc1ccc(Cl)c(-c2nc(N[C@@H]3CCN(C4CC4)C[C@@H]3F)c(C)c(-c3c(C)noc3C)n2)c1 [Example 167-3] | < 5 µM
3 | CCOC(=O)c1sc(-c2cc(N(C)C3CCOCC3)nc(-c3cccc(OCC(O)CNC)c3)n2)nc1C (stereo not shown) [Example 565-1a] | 10 to 20 µM
4 | CNC[C@@H](O)COc1ccc(Cl)c(-c2nc(N[C@H]3C[C@@](C)(OC)C3)c(C)c(-c3c(C)noc3C)n2)c1 [Example 110-3] | < 5 µM
5 | CNCC(O)COc1cccc(-c2nc(N[C@@H]3CCOC3)c(C)c(N3CCC4(CC3)CNC(=O)C4)n2)c1 (stereo partly shown) [Example 424-1a] | 10 to 20 µM
6 | CNCC(O)COc1cccc(-c2nc(-c3c(C)noc3C)cc(N3CCN(CC(F)(F)F)[C@@H](C)C3)n2)c1 (stereo partly shown) [Example 104-1a] | < 5 µM
7 | CNCC(O)COc1cccc(-c2nc(-c3c(C)noc3C)c(C)c(N3CCN(C(=O)OCCF)CC3)n2)c1 (stereo not shown) [Example 121-1a] | < 5 µM
8 | CCOC(=O)N1CC[C@H](Nc2nc(-c3cc(OC[C@H](O)CNC)ccc3Cl)nc(-c3c(C)noc3C)c2Cl)C1 [Example 151-3] | < 5 µM
9 | CNC[C@@H](O)COc1ccc(Cl)c(-c2nc(-c3c(C)noc3C)c(C)c(N3CC4(CCOCC4)C3)n2)c1 [Example 118-3] | < 5 µM
10 | CNC[C@H](O)COc1ccc(F)c(-c2nc(NC3CCN(C(=O)OC)CC3)c(C)c(-c3c(C)noc3C)n2)c1 [Example 26-3] | < 5 µM
11 | CNC[C@@H](O)COc1ccc(F)c(-c2nc(-c3c(C)noc3C)c(C)c(N3CC4(CCOCC4)C3)n2)c1 [Example 227-3] | < 5 µM
12 | CNCC(O)COc1cccc(-c2nc(-c3c(C)noc3C)cc(N3CCN(S(C)(=O)=O)[C@@H](C)C3)n2)c1 (stereo partly shown) [Example 92-1a] | < 5 µM
13 | CNC[C@@H](O)COc1ccc(Cl)c(-c2nc(-c3c(C)noc3C)c(C)c(N3CC4(CCCOC4)C3)n2)c1 [Example 119-3] | < 5 µM
14 | CNCC(O)COc1cccc(-c2nc(N[C@H]3C[C@H](O)C3)cc(-c3c(C)noc3C)n2)c1 (stereo partly shown) [Example 43-1a] | 10 to 20 µM
15 | CNC[C@H](O)COc1ccc(Cl)c(-c2nc(-c3c(C)noc3C)c(C)c(N3Cc4cc(Cl)cnc4C3)n2)c1 [Example 87-3] | < 5 µM
16 | CNCC(O)COc1cccc(-c2nc(-c3c(C)noc3C)c(C)c(N3CCN(C(=O)C(F)F)CC3)n2)c1 (stereo not shown) [Example 107-1a] | < 5 µM
17 | CNCC(O)COc1ccc(Cl)c(-c2nc(NCC3CCOCC3)c(C)c(-c3c(C)noc3C)n2)c1 (stereo not shown) [Example 9-3] | < 5 µM
18 | CCS(=O)(=O)N1CC2(CCCN(c3nc(-c4cccc(OCC(O)CNC)c4)nc(-c4c(C)noc4C)c3C)C2)C1 (stereo not shown) [Example 296-1a] | 5 to 10 µM
19 | CNC[C@@H](O)COc1ccc(Cl)c(-c2nc(N[C@H]3C[C@@H](C)O[C@@H](C)C3)c(C)c(-c3c(C)noc3C)n2)c1 [Example 172-3] | < 5 µM
20 | CNC[C@@H](O)COc1ccc(Cl)c(-c2nc(NC3CCN(C4CC4)CC3(F)F)c(C)c(-c3c(C)noc3C)n2)c1 (stereo partly shown) [Example 292-3] | < 5 µM
21 | CNC[C@@H](O)COc1ccc(Cl)c(-c2nc(-c3c(C)noc3C)c(C)c(N3C[C@H]4COC[C@H]4C3)n2)c1 [Example 186-3] | < 5 µM
22 | CCS(=O)(=O)N1CCC(Nc2nc(-c3cccc(OCC(O)CNC)c3)nc(-c3c(C)nsc3C)c2C)CC1 (stereo not shown) [Example 70-3] | < 5 µM
23 | CNC[C@@H](O)COc1ccc(Cl)c(-c2nc(NC[C@H]3CCOC3)c(C)c(-c3c(C)noc3C)n2)c1 [Example 233-3] | < 5 µM
24 | CNC[C@@H](O)COc1ccc(Cl)c(-c2nc(N[C@H]3CCN(C(=O)OC)[C@H](C)C3)c(C)c(-c3c(C)noc3C)n2)c1 [Example 102-3] | < 5 µM
25 | CNC[C@@H](O)COc1ccc(Cl)c(-c2nc(N[C@H]3CO[C@@H](C)C3)c(Cl)c(-c3c(C)noc3C)n2)c1 [Example 148-3] | < 5 µM
26 | CNC[C@@H](O)COc1ccc(Cl)c(-c2nc(N[C@H]3C[C@@H](OC)C3)c(C)c(-c3c(C)noc3C)n2)c1 [Example 144-3] | < 5 µM

Row | SMILES | IC50
27 | CCOC(=O)N1CCOC[C@@H]1CNc1nc(-c2cc(OC[C@@H](O)CNC)ccc2F)nc(-c2c(C)noc2C)c1C [Example 61-3] | < 5 µM
28 | CNC[C@@H](O)COc1ccc(F)c(-c2nc(-c3c(C)noc3C)c(Cl)c(N3CC4(CCOCC4)C3)n2)c1 [Example 294-3] | < 5 µM
29 | CNCC(O)COc1cccc(-c2nc(C(=O)NC3CCN(C)CC3)cc(-c3c(C)noc3C)n2)c1 (stereo not shown) [Example 160-1a] | 10 to 20 µM
30 | CNCC(O)COc1cccc(-c2nc(-c3c(C)nn(C)c3C)cc(N(C)C3CCOCC3)n2)c1 (stereo not shown) [Example 528-1a] | 5 to 10 µM
31 | CNC[C@@H](O)COc1ccc(F)c(-c2nc(-c3c(C)noc3C)c(C)c(N3CC4(CCN(C(=O)OC(C)C)CC4)C3)n2)c1 [Example 281-3] | < 5 µM
32 | CNC[C@@H](O)COc1ccc(Cl)c(-c2nc(-c3c(C)noc3C)c(C)c(N3CC4(CCN(C(=O)OC(C)C)CC4)C3)n2)c1 [Example 284-3] | < 5 µM
33 | CNCC(O)COc1cccc(-c2nc(NC3CCN(C4COC4)CC3)c(C)c(-c3c(C)noc3C)n2)c1 (stereo not shown) [Example 263-1a] | < 5 µM
34 | CNCC(O)COc1cccc(-c2nc(Nc3cc(C)on3)c(C)c(-c3c(C)noc3C)n2)c1 (stereo not shown) [Example 233-1a] | 10 to 20 µM
35 | CNCC(O)COc1cccc(-c2nc(-c3c(C)noc3C)c(C)c(N3CCn4ccnc4C3)n2)c1 (stereo not shown) [Example 34-3] | 5 to 10 µM
36 | CNC[C@@H](O)COc1ccc(Cl)c(-c2nc(-c3c(C)noc3C)c(C)c(N3CCC3)n2)c1 [Example 238-3] | < 5 µM
37 | CNCC(O)COc1cccc(-c2nc(NCCCCl)c(C)c(N[C@@H]3CCOC3)n2)c1 (stereo partly shown) [Example 366-1a] | 10 to 20 µM
38 | CNC[C@@H](O)COc1ccc(Cl)c(-c2nc(-c3c(C)noc3C)c(C)c(N3Cc4cc(OC)cnc4C3)n2)c1 [Example 232-3] | < 5 µM
39 | CNCC(O)COc1cc(OC)cc(-c2nc(NC3CCOCC3)c(C)c(-c3c(C)noc3C)n2)c1 (stereo not shown) [Example 75-1a] | < 5 µM
40 | CNCC(O)COc1cccc(-c2nc(Nc3cn(C)cn3)c(C)c(-c3c(C)noc3C)n2)c1 (stereo not shown) [Example 210-1a] | < 5 µM
41 | CNCC(O)COc1cccc(-c2nc(-c3c(C)noc3C)c(C)c(N3CCO[C@@H](CN(C)C)C3)n2)c1 (stereo partly shown) [Example 148-1a] | < 5 µM
42 | CNCC(O)COc1cccc(-c2nc(NC3CCN(C(=O)OC)CC3)c(C)c(-c3c(C)noc3C)n2)c1 (stereo not shown) [Example 118-1a] | < 5 µM
43 | CNCC(O)COc1cccc(-c2nc(-c3c(C)noc3C)cc(N3CCN(n4c(C)nnc4C)CC3)n2)c1 (stereo not shown) [Example 165-1a] | < 5 µM
44 | CC[C@H]1CN(c2cc(N(C)C3CCOCC3)nc(-c3cccc(OCC(O)CNC)c3)n2)CCN1 (stereo partly shown) [Example 505-1a] | < 5 µM
45 | CNC[C@@H](O)COc1cccc(-c2nc(NC3CCOCC3)c(C)c(-c3c(C)noc3C)n2)c1 [Example 56-1a] | < 5 µM
46 | CNCC(O)COc1cccc(-c2nc(-c3c(C)noc3C)cc(N3CCN(CCF)CC3)n2)c1 (stereo not shown) [Example 68-1a] | 5 to 10 µM
47 | CNCC(O)COc1cccc(-c2nc(NC3CCN(C(=O)C4CC4)C3)c(C)c(-c3c(C)noc3C)n2)c1 (stereo not shown) [Example 243-1a] | < 5 µM
48 | CNCC(O)COc1cccc(-c2nc(N3CCN(C)CC3)cc(N(C)C3CCOCC3)n2)c1 (stereo not shown) [Example 531-1a] | 5 to 10 µM
49 | CCOC(=O)N1CCC(Nc2nc(-c3cc(OC[C@@H](O)CNC)ccc3Cl)nc(-c3c(C)noc3C)c2C)CC1 [Example 105-3] | < 5 µM
50 | CNC[C@@H](O)COc1ccc(Cl)c(-c2nc(NC[C@@H]3CCCO3)c(C)c(-c3c(C)noc3C)n2)c1 [Example 131-3] | < 5 µM
51 | CNCC(O)COc1cccc(-c2nc(NCC3CN(C)CCO3)c(C)c(-c3c(C)noc3C)n2)c1 (stereo not shown) [Example 171-1a] | < 5 µM
52 | CNC[C@@H](O)COc1ccc(Cl)c(-c2nc(-c3c(C)noc3C)c(C)c(N(C)C3CC(COC)C3)n2)c1 (stereo partly shown) [Example 220-3] | < 5 µM
